# Measurements taken from paper PMC8469417, “Is It Possible to Create Antimicrobial Peptides Based on the Amyloidogenic Sequence of Ribosomal S1 Protein of P. aeruginosa?” (International Journal of Molecular Sciences, 2021).
# “Also recorded” adds a separate entry of the source. Where a name gives a salt, the structure may show the parent alone. Ends that are not written are not given here.
# Legend:
# [1] = tested on: P. aeruginosa strain PA103; assay: Broth microdilution, strain PA103; type: cell-based, Pseudomonas aeruginosa; settings: LB medium, 2% DMSO, 24 h, 37 °C, 600 nm
# Method: The R23R, R23L, R23R*, R23L* peptides and an antibiotic (gentamicin sulfate) were dissolved in 100% DMSO and solutions were prepared with a final DMSO concentration of 2% (volume/volume) to test their activity.
# Stationary culture of P. aeruginosa strain PA103 was diluted 100 times in fresh LB medium with peptides R23R and R23L or gentamicin sulfate (positive control) at various concentrations. After 24 h at 37 °C co-incubation bacterial cells with peptides, the optical densities of the cultures were measured at a wavelength of 600 nm in a plate reader iMac (BioRad Laboratories, Hercules, CA, USA). Each test was carryout in three replicates.
# In the next experiment to prepare a stationary culture of P. aeruginosa, strain PA103, a colony was inoculated from a Petri dish in 1.5 mL of liquid LB medium and set to grow for 24 h at 37 °C and with stirring at 180 rpm. In the experiment, we used a culture with an initial concentration of ≈10^6–10^7 CFU/mL (10 μL), sterile LB medium (80 μL), peptides R23R* and R23L* diluted in 20% (volume/volume) DMSO or the antibiotic gentamicin sulfate as a positive control (10 μL). […] Optical density was measured in a plate reader iMac (BioRad Laboratories, Hercules, CA, USA) at a wavelength of 600 nm every hour from 0 h to 24 h. Each sample is measured in duplicate.
# [2] = tested on: P. aeruginosa strain PA103; assay: Inhibition zone assay on agar, strain PA103; type: cell-based, Pseudomonas aeruginosa; settings: 24 h
# Method: (§1) The R23R, R23L, R23R*, R23L* peptides and an antibiotic (gentamicin sulfate) were dissolved in 100% DMSO and solutions were prepared to test their activity.
# The culture of the studied bacteria (P. aeruginosa strain PA103) was diluted 10 times in Luria-Bertani (LB) medium with non-solidified 0.75% agar (w/w) on sterile Petri dishes. […]
# [3] = electron microscopy and fluorescence of thioflavin T; cited from earlier work
# From the text: In accordance with the strategy presented in Figure 1, we developed hybrid peptides that contained a cell penetrating peptide (CPP) (fragment of Tat-peptide) at the N-termini and an amyloidogenic sequence at the C-termini, which was predicted using bioinformatics tools. The two sites were linked by four glycines. Thus, the construction of the fusion peptide was as follows: “CPP”+”linker GGGG”+ “predicted amyloidogenic-fragment”. The LHITDMAWKR and ITDFGIFIGL sequences were used as amyloidogenic fragments.
# [4] = tested on: P. aeruginosa strain ATCC 9027; assay: Antimicrobial test on agar, strain ATCC 9027; type: cell-based, Pseudomonas aeruginosa
# Method: as §1
# (§2) The P. aeruginosa strain ATCC 28753 was inoculated with a wire loop in 5 mL of LB medium and was incubated at 37 °C. After 12 h, plastic Petri dishes were poured with LB medium (about 5 mL) with 0.75% agar. Before pouring, 50 μL of an overnight culture of the test bacteria was added to each dish. The R23R, R23L, R23R*, and R23L* peptides were finally dissolved in 2% (volume/volume) DMSO and was tested with different concentrations with gentamicin sulfate as control of antimicrobial effect. The medium was dried and 10 μL of the prepared peptides were applied to it in accordance with the labeling. Then the dishes were placed in a thermostat and incubated for 12 h at a temperature of 37 °C. Antimicrobial activity was recorded by the presence of transparent zones of no growth around drops with peptide.
# Studies with the P. aeruginosa strain ATCC 9027 were carried out similarly to the P. aeruginosa strain ATCC 28753. The exception was the amount of LB medium. Sterile plastic Petri dishes were filled with LB medium (about 25 mL) with 0.75% agar and 250 µL of an overnight culture of the test bacteria was added to each dish.
# [5] = tested on: human diploid fibroblasts; assay: Cytotoxicity assay, human fibroblasts; type: cell-based; settings: up to 8 µM, 24 h; resazurin assay, calcein-AM / propidium iodide staining, triplicate
# Method: (§3) Cell viability was estimated as described previously by resazurin cell viability assay. Each assay was done in triplicate. All measurements were carried out on the control samples that were not treated with cytotoxic substances. We used human diploid fibroblasts and human breast duct carcinoma BT474 cells obtained from the American Type Cell Culture Collection (Manassas, Virginia, VA, USA). BT474 cells were cultured in DMEM medium (Sigma-Aldrich, St. Louis, MO, USA) supplemented with 10% fetal bovine serum (Gibco, Waltham, MA, USA), 40 μg/mL gentamicin sulfate (Sigma-Aldrich, St. Louis, MO, USA), at 37° C, under conditions of 5% content CO2 in the air. The analysis of living and dead cells was carried out using BD Accuri C6 flow cytometer (BD Bioscience, San Jose, CA, USA).
# [6] = tested on: P. aeruginosa strain ATCC 28753; type: cell-based, Pseudomonas aeruginosa; settings: 10 µL drops on LB 0.75% agar, 2% DMSO, 12 h, 37 °C
# Method: as §1, §2
# [7] = tested on: human breast duct carcinoma BT474 cells; assay: Cytotoxicity assay, BT474 cells; type: cell-based; settings: up to 8 µM, 24 h; resazurin assay, calcein-AM / propidium iodide staining, triplicate
# Method: as §3
compound,measurement,setting,value
CNC(C)C1CCC(N)C(OC2C(N)CC(N)C(OC3OCC(C)(O)C(NC)C3O)C2O)O1 (centres unmarked) [gentamicin sulfate],Optical density,[1]; 174 µM,zero
same,Optical density,[1]; 1740 µM,zero
same,MIC,"[2]; Pseudomonas aeruginosa, PA103, drops on LB 0.75% agar, 20% DMSO, zones of inhibition, read-out: minimum inhibitory concentration (MIC)",170 µM
ITDFGIFIGL [amyloidogenic fragment from the fifth domain of ribosomal S1 protein of P. aeruginosa],amyloid-like properties (in words),[3],exhibited amyloid-like properties
"RKKRRQRRRGG-Sar [R12-Sar, CPP fragment with GG-Sar, without amyloidogenic part]",antimicrobial activity on agar (in words),"[4]; drops on LB 0.75% agar, 3.75-3750 µM tested, zones of inhibition",did not exhibit antimicrobial activity
same,antibacterial properties on agar,[4]; peptide 3.75 µM,Non-AMP
same,antibacterial properties on agar,[4]; peptide 37.5 µM,Non-AMP
same,antibacterial properties on agar,[4]; peptide 375 µM,Non-AMP
same,antibacterial properties on agar,[4]; peptide 3750 µM,Non-AMP
same,antimicrobial activity on agar (in words),"[2]; drops on LB agar, b51 states it for bacteria grown on agar in general",did not exhibit antimicrobial activity
same,antibacterial properties on agar,[2]; peptide 6.56 µM,Non-AMP
same,antibacterial properties on agar,[2]; peptide 65.6 µM,Non-AMP
same,antibacterial properties on agar,[2]; peptide 656 µM,Non-AMP
same,antibacterial properties on agar,[2]; peptide 6560 µM,Non-AMP
RKKRRQRRRGGGGITDFGIFIGL [R23L],cytotoxic effect / cell viability (in words),[5],remained alive; also recorded: did not have a toxic effect
same,MIC,[6],about 300 µM
same,cytotoxic effect / cell viability (in words),[7],remained alive; also recorded: did not have a toxic effect
RKKRRQRRRGGGGLHITDMAWKR [R23R],cytotoxic effect / cell viability (in words),[5],remained alive; also recorded: did not have a toxic effect
same,MIC,[6],about 300 µM
same,cytotoxic effect / cell viability (in words),[7],remained alive; also recorded: did not have a toxic effect
